From PubChem BioAssay AID200 (DTP/NCI, 2004)
Several values for one entry are separate records, joined by “and”; a condition that tells them apart may be missing. Identical values can stand only once. Toxic doses and inconclusive results are not listed. Where a SMILES comes first, the peptide text is derived from it.

Tested on: B6C3F1 mice, B16 melanoma ip, median survival T/C
Experiment: NCI In Vivo Anticancer Drug Screen. Data for tumor model B16 Melanoma (intraperitoneal) in B6C3F1 mice
Settings: endpoint: median survival time, higher = longer survival
Summary of the method: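 Antitumor effect was judged in mice with transplanted tumors by dividing the treated group's survival measure by that of vehicle controls.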

[1] = dose: 0.12 mg/kg/injection, schedule: Q01DX009 (ip), vehicle: Klucel (hydroxypropylcellulose) (HPC)
[2] = dose: 12.5 mg/kg/injection, schedule: Q01DX009 (ip), vehicle: saline with Tween-80
[3] = dose: 50.0 mg/kg/injection, schedule: Q01DX009 (ip), vehicle: saline with Tween-80
[4] = dose: 100.0 mg/kg/injection, schedule: Q01DX009 (ip), vehicle: saline with Tween-80
[5] = dose: 200.0 mg/kg/injection, schedule: Q01DX009 (ip), vehicle: saline with Tween-80
[6] = dose: 25.0 mg/kg/injection, schedule: Q01DX009 (ip), vehicle: saline
[7] = dose: 50.0 mg/kg/injection, schedule: Q01DX009 (ip), vehicle: saline
[8] = dose: 25.0 mg/kg/injection, schedule: Q01DX009 (ip), vehicle: Klucel (hydroxypropylcellulose) (HPC)
[9] = dose: 50.0 mg/kg/injection, schedule: Q01DX009 (ip), vehicle: Klucel (hydroxypropylcellulose) (HPC)
[10] = dose: 100.0 mg/kg/injection, schedule: Q01DX009 (ip), vehicle: Klucel (hydroxypropylcellulose) (HPC)
[11] = dose: 200.0 mg/kg/injection, schedule: Q01DX009 (ip), vehicle: Klucel (hydroxypropylcellulose) (HPC)
[12] = dose: 100.0 mg/kg/injection, schedule: Q01DX009 (ip), vehicle: saline
[13] = dose: 200.0 mg/kg/injection, schedule: Q01DX009 (ip), vehicle: saline
[14] = dose: 400.0 mg/kg/injection, schedule: Q01DX009 (ip), vehicle: saline
[15] = dose: 400.0 mg/kg/injection, schedule: Q01DX009 (ip), vehicle: saline with Tween-80
[16] = dose: 400.0 mg/kg/injection, schedule: Q01DX009 (ip), vehicle: Klucel (hydroxypropylcellulose) (HPC)

`CO[C@@]12[C@H](COC(N)=O)C3=C(C(=O)C(C)=C(N)C3=O)N1C[C@@H]1N[C@@H]12` was tested, and the T/C [1] was 109 % of control, the T/C (dose: 0.12 mg/kg/injection, schedule: Q01DX009 (ip), vehicle: saline with Tween-80) was 119 % of control and the T/C (dose: 0.12 mg/kg/injection, schedule: Q01DX009 (ip), vehicle: saline) was 120 % of control and 100 % of control. For the same compound, the T/C (dose: 0.13 mg/kg/injection, schedule: Q01DX009 (ip), vehicle: water) was 109 % of control and 110 % of control, the T/C (dose: 0.25 mg/kg/injection, schedule: Q01DX005 (ip), vehicle: saline) was 124 % of control and the T/C (dose: 0.25 mg/kg/injection, schedule: Q01DX005 (iv), vehicle: saline) was 107 % of control. The T/C (dose: 0.25 mg/kg/injection, schedule: Q01DX009 (ip), vehicle: Klucel (hydroxypropylcellulose) (HPC)) was 116 % of control, the T/C (dose: 0.25 mg/kg/injection, schedule: Q01DX009 (ip), vehicle: saline) was 115 % of control and the T/C (dose: 0.25 mg/kg/injection, schedule: Q01DX009 (ip), vehicle: water) was 124 % of control. The T/C (dose: 0.5 mg/kg/injection, schedule: Q01DX001 (ip), vehicle: clinical formulation) was 122 % of control, the T/C (dose: 0.5 mg/kg/injection, schedule: Q01DX005 (ip), vehicle: saline) was 166 % of control and the T/C (dose: 0.5 mg/kg/injection, schedule: Q01DX005 (iv), vehicle: saline) was 86 % of control. The T/C (dose: 0.5 mg/kg/injection, schedule: Q01DX009 (ip), vehicle: Klucel (hydroxypropylcellulose) (HPC)) was 116 % of control, the T/C (dose: 0.5 mg/kg/injection, schedule: Q01DX009 (ip), vehicle: saline with Tween-80) was 166 % of control and the T/C (dose: 0.5 mg/kg/injection, schedule: Q01DX009 (ip), vehicle: saline) was 161 % of control. The T/C (dose: 0.5 mg/kg/injection, schedule: Q01DX009 (ip), vehicle: water) was 150 % of control, the T/C (dose: 0.75 mg/kg/injection, schedule: Q04DX003 (ip), vehicle: clinical formulation) was 121 % of control and the T/C (dose: 1.0 mg/kg/injection, schedule: Q01DX001 (ip), vehicle: saline) was 165 % of control. The T/C (dose: 1.0 mg/kg/injection, schedule: Q01DX001 (iv), vehicle: saline) was 93 % of control, the T/C (dose: 1.0 mg/kg/injection, schedule: Q01DX005 (ip), vehicle: saline) was 168 % of control and the T/C (dose: 1.0 mg/kg/injection, schedule: Q01DX009 (ip), vehicle: Klucel (hydroxypropylcellulose) (HPC)) was 155 % of control. For the same compound, the T/C (dose: 1.0 mg/kg/injection, schedule: Q01DX009 (ip), vehicle: saline with Tween-80) was 191 % of control, the T/C (dose: 1.0 mg/kg/injection, schedule: Q01DX009 (ip), vehicle: saline) was 185 % of control and the T/C (dose: 1.0 mg/kg/injection, schedule: Q01DX009 (ip), vehicle: water) was 156 % of control and 173 % of control. For the same compound, the T/C (dose: 1.0 mg/kg/injection, schedule: Q04DX003 (ip), vehicle: clinical formulation) was 156 % of control and 160 % of control, the T/C (dose: 1.25 mg/kg/injection, schedule: Q01DX009 (oral), vehicle: water) was 91 % of control and the T/C (dose: 2.0 mg/kg/injection, schedule: Q01DX001 (ip), vehicle: clinical formulation) was 159 % of control. For the same compound, the T/C (dose: 2.0 mg/kg/injection, schedule: Q01DX001 (iv), vehicle: saline) was 118 % of control, the T/C (dose: 2.0 mg/kg/injection, schedule: Q01DX005 (ip), vehicle: saline) was 179 % of control and the T/C (dose: 2.0 mg/kg/injection, schedule: Q01DX009 (ip), vehicle: water) was 190 % of control. The T/C (dose: 2.0 mg/kg/injection, schedule: Q04DX003 (ip), vehicle: clinical formulation) was 190 % of control and 195 % of control, the T/C (dose: 2.5 mg/kg/injection, schedule: Q01DX009 (oral), vehicle: water) was 102 % of control and the T/C (dose: 3.0 mg/kg/injection, schedule: Q04DX003 (ip), vehicle: clinical formulation) was 203 % of control. The T/C (dose: 4.0 mg/kg/injection, schedule: Q01DX001 (ip), vehicle: clinical formulation) was 193 % of control, the T/C (dose: 4.0 mg/kg/injection, schedule: Q01DX001 (ip), vehicle: saline) was 176 % of control and the T/C (dose: 4.0 mg/kg/injection, schedule: Q01DX001 (iv), vehicle: saline) was 115 % of control. For the same compound, the T/C (dose: 4.0 mg/kg/injection, schedule: Q04DX003 (ip), vehicle: clinical formulation) was 239 % of control, the T/C (dose: 8.0 mg/kg/injection, schedule: Q01DX001 (ip), vehicle: clinical formulation) was 164 % of control and the T/C (dose: 8.0 mg/kg/injection, schedule: Q01DX001 (ip), vehicle: saline) was 216 % of control.
`O=C1OCC2C(=O)OCC12` (stereo unspecified) was tested, and the T/C [2] was 99 % of control, the T/C (dose: 25.0 mg/kg/injection, schedule: Q01DX009 (ip), vehicle: saline with Tween-80) was 99 % of control and the T/C [3] was 102 % of control. For the same compound, the T/C [4] was 101 % of control and the T/C [5] was 106 % of control.
With `C=CC(=O)N1CN(C(=O)C=C)CN(C(=O)C=C)C1` the T/C (dose: 0.78 mg/kg/injection, schedule: Q01DX009 (ip), vehicle: saline with Tween-80) was 99 % of control, the T/C (dose: 1.56 mg/kg/injection, schedule: Q01DX009 (ip), vehicle: saline with Tween-80) was 100 % of control and the T/C (dose: 3.12 mg/kg/injection, schedule: Q01DX009 (ip), vehicle: saline with Tween-80) was 100 % of control. For the same compound, the T/C (dose: 6.25 mg/kg/injection, schedule: Q01DX009 (ip), vehicle: saline with Tween-80) was 106 % of control and the T/C [2] was 86 % of control.
In the case of `CC(C)CC(NC(=O)C(F)(F)F)C(=O)O` (stereo unspecified), the T/C [6] is reported as 89 % of control and the T/C [7] is reported as 91 % of control.
For `NC(=O)C#CC(N)=O`, the T/C (dose: 0.06 mg/kg/injection, schedule: Q01DX009 (ip), vehicle: Klucel (hydroxypropylcellulose) (HPC)) was 101 % of control, the T/C [1] was 102 % of control and the T/C (dose: 0.23 mg/kg/injection, schedule: Q01DX009 (ip), vehicle: Klucel (hydroxypropylcellulose) (HPC)) was 97 % of control. The T/C (dose: 0.45 mg/kg/injection, schedule: Q01DX009 (ip), vehicle: Klucel (hydroxypropylcellulose) (HPC)) was 100 % of control and the T/C (dose: 0.9 mg/kg/injection, schedule: Q01DX009 (ip), vehicle: Klucel (hydroxypropylcellulose) (HPC)) was 102 % of control.
`CCC(C)c1cnc(CC(C)C)c(=O)n1O` (stereo unspecified) was tested, and the T/C [3] was 98 % of control and the T/C [4] was 87 % of control.
With `CCC1OCC(C(Cl)CCl)O1` (stereo unspecified) the T/C [8] was 105 % of control, the T/C [9] was 96 % of control and the T/C [10] was 91 % of control. For the same compound, the T/C [11] was 98 % of control.
For `O=C1C(O)=C(c2ccccc2)C(=O)C(O)=C1c1ccccc1`, the T/C (dose: 3.12 mg/kg/injection, schedule: Q01DX009 (ip), vehicle: saline) was 109 % of control, the T/C (dose: 6.25 mg/kg/injection, schedule: Q01DX009 (ip), vehicle: saline) was 100 % of control and the T/C (dose: 12.5 mg/kg/injection, schedule: Q01DX009 (ip), vehicle: saline) was 91 % of control and 101 % of control. For the same compound, the T/C [6] was 109 % of control and 117 % of control and the T/C [7] was 108 % of control and 112 % of control.
`CNC=O` was tested, and the T/C [12] was 101 % of control, the T/C [13] was 108 % of control and the T/C [14] was 95 % of control.
In the case of `CC(=O)NC(Cc1cc(I)c(O)c(I)c1)C(=O)O` (stereo unspecified), the T/C [7] is reported as 121 % of control, the T/C [12] is reported as 89 % of control and the T/C [13] is reported as 92 % of control. For the same compound, the T/C [14] was 102 % of control.
In the case of `OC(c1ccccc1)C(O)C(c1ccccc1)N1CCCCC1` (stereo unspecified), the T/C [4] is reported as 100 % of control, the T/C [5] is reported as 102 % of control and the T/C [15] is reported as 111 % of control.
With `NCC(=O)NC(Cc1ccccc1)C(=O)NCC(=O)O` (stereo unspecified) (HELM PEPTIDE1{G.[O=C(C(Cc1ccccc1)N[*:1])[*:2]].G}$$$$V2.0) the T/C [10] was 103 % of control, the T/C [11] was 95 % of control and the T/C [16] was 100 % of control.
With `COc1ccc2c(c1[N+](=O)[O-])CC[C@@H]1[C@@H]2CC[C@]2(C)C(=O)CC[C@@H]12` the T/C [3] was 94 % of control and 95 % of control, the T/C [4] was 91 % of control and 108 % of control and the T/C [5] was 90 % of control. The T/C [15] was 91 % of control and the T/C (dose: 800.0 mg/kg/injection, schedule: Q01DX009 (ip), vehicle: saline with Tween-80) was 91 % of control.
In the case of `ClCCCCCCCCCCc1ccccc1`, the T/C (dose: 12.5 mg/kg/injection, schedule: Q01DX009 (ip), vehicle: Klucel (hydroxypropylcellulose) (HPC)) is reported as 91 % of control, the T/C [8] is reported as 94 % of control and the T/C [9] is reported as 91 % of control. The T/C [10] was 93 % of control, the T/C [11] was 90 % of control and the T/C [16] was 89 % of control.
